Assay results published in ChEMBL document CHEMBL1201862, “PubChem BioAssay data set” (2004).
Active and inactive are the calls of the source.

Legend:
[1] = antiviral protection against BTV-induced cell death – arbovirus, BSR cells, confirmation (AID 1250); assay type: functional;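 also: protection from viral cytopathic effect measured as cell viability by ATP luminescence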
[2] = A High Throughput Confirmatory Assay used to Identify Novel Compounds that Inhibit Mycobacterium Tuberculosis in the absence of Glycerol.; assay type: functional
Fatty acid synthase [3] = target: T1, Fatty acid synthase (Homo sapiens, UniProt P49327); test: inhibition of human FAS-TE enzyme activity – biochemical, kinetic fluorescence intensity, dose response (AID 624326); assay type: functional;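 also: rate of fluorescence rise from hydrolysis of a fluorogenic O-methyl fluorescein ester substrate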
[4] = microbe, parasite or virus in culture; assay type: functional; settings: Mycobacterium tuberculosis
Fatty acid synthase [5] = target: T1, Fatty acid synthase; test: inhibition of human FAS-TE enzyme activity – biochemical, endpoint fluorescence intensity, uHTS hits, dose response (AID 624327); assay type: functional;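 also: fluorescence from hydrolysis of an O-methyl fluorescein acyl ester substrate by the enzyme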
[6] = target: Melanin-concentrating hormone receptor 1 (Homo sapiens, UniProt Q99705); test: Fluorescence-based counterscreen for antagonists of the G-protein coupled receptor 7 (GPR7): cell-based high throughput dose response assay to identify antagonists of the melanin-concentrating hormone receptor 1 (MCHR1).; assay type: functional
HeLa = test: viability loss in HeLa cells – cell-based, 24 h, cherry-picked samples, cytotoxicity control, dose response (AID 504726); assay type: functional; settings: Homo sapiens;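 also: potency for cytotoxicity as loss of luminescence signal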
[7] = Trypanosoma cruzi growth suppression in host cells – NIH3T3 host cells, beta-gal luminescence, confirmation (AID 2044); assay type: functional, cell-based;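 also: intracellular parasites grown in NIH/3T3 mouse fibroblasts as host cells; luminescent beta-galactosidase reporter signal from transgenic T. cruzi replicating inside host cells; inhibitors lower the luminescence signal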
[8] = NIH3T3 cell viability loss – ATP luminescence, mouse fibroblasts, counter-screen, dose response (AID 2010); assay type: functional, cell-based;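 also: cells exposed to compound for about 90 hours before reading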
Bcl-2-related protein A1 [9] = target: T2, Bcl-2-related protein A1 (Mus musculus, UniProt Q07440); test: small-molecule antagonists of Bfl-1/BH3 interaction – biochemical, TR-FRET, mouse Bfl-1, confirmation (AID 621);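 also: TR-FRET binding of GST-Bfl-1 to FITC-labelled Bid peptide via terbium antibody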
T2 sequence (Q07440 whole entry): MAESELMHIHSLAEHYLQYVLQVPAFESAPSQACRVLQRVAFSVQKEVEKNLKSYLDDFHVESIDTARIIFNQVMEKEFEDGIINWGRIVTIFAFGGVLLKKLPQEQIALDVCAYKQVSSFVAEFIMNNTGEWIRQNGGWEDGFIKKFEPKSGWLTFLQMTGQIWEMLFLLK

Bcl-2-related protein A1 [10] = target: T2, Bcl-2-related protein A1; test: Bfl-1 binding inhibitors, SAR follow-up, biochemical, fluorescence polarization (AID 1070)
HEK293 = test: Fluorescence-based counterscreen for potentiators or agonists of NPY-Y2: cell-based high-throughput dose response assay to identify inhibitors of cyclic nucleotide gated ion channel (CNGC) activity. In this assay, the parental HEK293 cell line transfected with a cyclic-nucleotide gated ion channel (CNGC)-based cAMP sensor is used to measure inhibition of isoproterenol-induced CNGC activity by test compound.; assay type: functional; settings: Homo sapiens;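 also: stimulus is 1 µM isoproterenol at EC100 plus PDE inhibitor Ro 20-1724 at 25 µM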
[11] = target: Neuropeptide Y receptor type 2 (Homo sapiens, UniProt P49146); test: Fluorescence-based cell-based high-throughput dose response assay for agonists of NPY-Y2. [Related pubchem assays: 1703 (Screening assay (CNGC inhibitors).), 1359 (Screening assay (NPY-Y2 potentiators or agonists).), 1304 (Screening assay (NPY-Y1 potentiators or agonists).), 1710 (Screening assay (NPY-Y2 agonists).), 1791 (Summary AID.)]; assay type: functional
[12] = target: Neuropeptide Y receptor type 1 (Homo sapiens, UniProt P25929); test: Fluorescence-based counterscreen for agonists of NPY-Y2: cell-based high-throughput dose response assay for agonists of NPY-Y1.; assay type: functional
Vero = test: viability of Vero cells under compound – cytotoxicity control for flavivirus capping enzyme inhibitors (AID 588742); assay type: functional; settings: Chlorocebus sabaeus
[13] = target: Peroxisome proliferator-activated receptor gamma/Nuclear receptor corepressor 2 (Homo sapiens, UniProt P37231+Q9Y618); assay type: functional
[14] = target: Photoreceptor-specific nuclear receptor (Homo sapiens, UniProt Q9Y5X4); assay type: functional;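 also: potency for compounds that break the NR2E3 corepressor complex and count as activators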
[15] = target: Lysosomal acid glucosylceramidase (Homo sapiens, UniProt P04062); test: Dose response cell-based high throughput screening assay to identify enhancers of beta-glucosidase activity. [Related pubchem assays: 784 ]; assay type: functional
[16] = target: Serine/threonine-protein phosphatase (Homo sapiens, UniProt Q9BPW0); test: inhibition of protein phosphatase 5 activity – biochemical, fluorescence, dose response (AID 2395)
[17] = target: Serine/threonine-protein phosphatase PP1-alpha catalytic subunit (Homo sapiens, UniProt P62136); test: inhibition of protein phosphatase 1 activity – biochemical, fluorescence, dose response (AID 2394)
Sequence of Serine/threonine-protein phosphatase PP1-alpha catalytic subunit (P62136 whole entry): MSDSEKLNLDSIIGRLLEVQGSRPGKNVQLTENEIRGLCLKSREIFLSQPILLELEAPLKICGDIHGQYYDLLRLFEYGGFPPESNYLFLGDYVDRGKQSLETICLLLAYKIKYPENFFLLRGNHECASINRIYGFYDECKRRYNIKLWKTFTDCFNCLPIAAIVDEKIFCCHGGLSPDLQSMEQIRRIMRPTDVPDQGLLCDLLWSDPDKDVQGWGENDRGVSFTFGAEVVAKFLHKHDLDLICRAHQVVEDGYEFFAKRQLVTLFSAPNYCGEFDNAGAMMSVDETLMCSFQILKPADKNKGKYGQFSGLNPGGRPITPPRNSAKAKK

T1 sequence (P49327 whole entry): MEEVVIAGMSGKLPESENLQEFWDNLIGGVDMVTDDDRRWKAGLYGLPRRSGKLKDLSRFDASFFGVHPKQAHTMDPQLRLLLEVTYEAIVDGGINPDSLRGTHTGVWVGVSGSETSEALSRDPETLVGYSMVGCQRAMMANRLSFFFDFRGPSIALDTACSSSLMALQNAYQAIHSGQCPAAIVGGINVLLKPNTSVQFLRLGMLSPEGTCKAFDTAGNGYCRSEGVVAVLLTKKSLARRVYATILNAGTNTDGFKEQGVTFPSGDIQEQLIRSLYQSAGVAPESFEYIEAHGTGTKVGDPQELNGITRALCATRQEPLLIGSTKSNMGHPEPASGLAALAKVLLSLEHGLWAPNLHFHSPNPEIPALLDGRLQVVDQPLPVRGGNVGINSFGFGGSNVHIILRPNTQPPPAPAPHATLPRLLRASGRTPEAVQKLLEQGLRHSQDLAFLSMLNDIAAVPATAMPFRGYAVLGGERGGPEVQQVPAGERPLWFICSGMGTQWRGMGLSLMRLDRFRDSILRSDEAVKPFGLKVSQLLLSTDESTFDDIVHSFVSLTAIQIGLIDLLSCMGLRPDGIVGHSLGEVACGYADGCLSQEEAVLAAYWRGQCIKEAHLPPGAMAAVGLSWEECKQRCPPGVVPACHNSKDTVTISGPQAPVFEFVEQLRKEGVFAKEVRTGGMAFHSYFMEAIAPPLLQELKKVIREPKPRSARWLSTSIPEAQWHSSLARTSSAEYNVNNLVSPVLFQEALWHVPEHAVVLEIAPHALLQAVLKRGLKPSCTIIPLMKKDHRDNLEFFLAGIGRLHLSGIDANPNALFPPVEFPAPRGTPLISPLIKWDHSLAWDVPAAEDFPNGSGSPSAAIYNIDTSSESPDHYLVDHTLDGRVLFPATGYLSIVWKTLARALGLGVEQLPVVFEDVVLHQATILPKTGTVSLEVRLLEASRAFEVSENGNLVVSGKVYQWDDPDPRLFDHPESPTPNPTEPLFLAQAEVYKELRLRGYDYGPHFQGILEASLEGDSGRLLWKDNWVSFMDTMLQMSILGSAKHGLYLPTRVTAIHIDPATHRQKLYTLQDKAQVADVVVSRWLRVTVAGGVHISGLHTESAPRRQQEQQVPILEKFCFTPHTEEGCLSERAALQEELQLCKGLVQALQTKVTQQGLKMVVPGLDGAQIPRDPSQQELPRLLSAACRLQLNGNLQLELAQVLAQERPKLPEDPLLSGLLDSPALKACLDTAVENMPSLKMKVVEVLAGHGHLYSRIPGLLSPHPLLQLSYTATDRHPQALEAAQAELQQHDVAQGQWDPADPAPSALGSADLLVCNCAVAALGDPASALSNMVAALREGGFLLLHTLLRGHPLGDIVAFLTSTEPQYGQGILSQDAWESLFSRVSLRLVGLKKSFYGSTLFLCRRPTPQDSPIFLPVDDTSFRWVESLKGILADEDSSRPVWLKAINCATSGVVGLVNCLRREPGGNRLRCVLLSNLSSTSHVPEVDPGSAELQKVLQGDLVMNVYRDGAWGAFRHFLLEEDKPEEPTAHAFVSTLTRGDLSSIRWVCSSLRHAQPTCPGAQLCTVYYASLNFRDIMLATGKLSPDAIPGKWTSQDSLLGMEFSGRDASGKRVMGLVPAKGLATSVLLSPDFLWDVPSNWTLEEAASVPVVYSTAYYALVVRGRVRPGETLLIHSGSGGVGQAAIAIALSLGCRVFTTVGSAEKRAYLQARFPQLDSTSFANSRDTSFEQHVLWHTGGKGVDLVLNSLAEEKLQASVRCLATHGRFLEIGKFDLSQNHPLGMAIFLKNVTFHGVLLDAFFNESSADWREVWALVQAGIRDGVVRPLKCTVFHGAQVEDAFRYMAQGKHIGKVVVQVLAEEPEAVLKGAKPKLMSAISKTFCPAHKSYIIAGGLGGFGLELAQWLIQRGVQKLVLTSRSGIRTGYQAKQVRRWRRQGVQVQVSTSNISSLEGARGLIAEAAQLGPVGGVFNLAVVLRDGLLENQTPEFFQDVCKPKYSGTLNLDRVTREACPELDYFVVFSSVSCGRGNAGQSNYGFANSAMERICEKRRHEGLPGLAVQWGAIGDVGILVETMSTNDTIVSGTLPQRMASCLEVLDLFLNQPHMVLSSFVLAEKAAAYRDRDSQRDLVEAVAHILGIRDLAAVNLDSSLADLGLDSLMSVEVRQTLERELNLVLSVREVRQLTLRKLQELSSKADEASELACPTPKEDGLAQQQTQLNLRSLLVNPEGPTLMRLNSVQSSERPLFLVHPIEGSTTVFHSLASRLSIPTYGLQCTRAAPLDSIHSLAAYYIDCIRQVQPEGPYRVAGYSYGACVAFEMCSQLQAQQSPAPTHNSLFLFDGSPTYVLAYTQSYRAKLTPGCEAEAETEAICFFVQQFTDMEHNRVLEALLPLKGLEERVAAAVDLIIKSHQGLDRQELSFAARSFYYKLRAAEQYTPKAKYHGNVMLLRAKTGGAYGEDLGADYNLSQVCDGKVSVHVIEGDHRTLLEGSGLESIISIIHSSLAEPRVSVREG
Sequence of Neuropeptide Y receptor type 2 (P49146 whole entry): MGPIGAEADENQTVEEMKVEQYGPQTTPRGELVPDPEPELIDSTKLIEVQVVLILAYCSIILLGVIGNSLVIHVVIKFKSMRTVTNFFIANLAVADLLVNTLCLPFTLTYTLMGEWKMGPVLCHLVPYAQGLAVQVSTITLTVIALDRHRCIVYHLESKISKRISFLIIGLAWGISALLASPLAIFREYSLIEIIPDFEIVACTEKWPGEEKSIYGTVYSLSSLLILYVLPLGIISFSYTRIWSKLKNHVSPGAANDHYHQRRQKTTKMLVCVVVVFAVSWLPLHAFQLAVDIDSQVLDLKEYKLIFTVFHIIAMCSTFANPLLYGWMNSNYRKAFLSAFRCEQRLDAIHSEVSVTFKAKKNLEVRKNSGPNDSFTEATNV
Sequence of Lysosomal acid glucosylceramidase (P04062 whole entry): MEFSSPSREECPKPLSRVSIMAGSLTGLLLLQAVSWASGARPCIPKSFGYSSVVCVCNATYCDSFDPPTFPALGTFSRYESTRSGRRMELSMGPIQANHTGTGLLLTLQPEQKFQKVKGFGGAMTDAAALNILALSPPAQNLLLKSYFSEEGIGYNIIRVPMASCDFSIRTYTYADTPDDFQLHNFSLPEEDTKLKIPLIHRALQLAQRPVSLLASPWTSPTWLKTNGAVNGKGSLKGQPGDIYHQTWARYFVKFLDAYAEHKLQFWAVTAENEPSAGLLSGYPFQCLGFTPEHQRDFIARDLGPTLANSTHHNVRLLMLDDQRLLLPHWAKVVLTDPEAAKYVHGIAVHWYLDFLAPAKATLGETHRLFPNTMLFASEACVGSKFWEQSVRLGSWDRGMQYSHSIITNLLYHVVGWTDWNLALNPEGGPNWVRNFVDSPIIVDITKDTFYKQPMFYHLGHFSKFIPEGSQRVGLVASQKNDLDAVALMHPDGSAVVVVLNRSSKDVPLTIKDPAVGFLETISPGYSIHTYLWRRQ
Sequence of Melanin-concentrating hormone receptor 1 (Q99705 whole entry): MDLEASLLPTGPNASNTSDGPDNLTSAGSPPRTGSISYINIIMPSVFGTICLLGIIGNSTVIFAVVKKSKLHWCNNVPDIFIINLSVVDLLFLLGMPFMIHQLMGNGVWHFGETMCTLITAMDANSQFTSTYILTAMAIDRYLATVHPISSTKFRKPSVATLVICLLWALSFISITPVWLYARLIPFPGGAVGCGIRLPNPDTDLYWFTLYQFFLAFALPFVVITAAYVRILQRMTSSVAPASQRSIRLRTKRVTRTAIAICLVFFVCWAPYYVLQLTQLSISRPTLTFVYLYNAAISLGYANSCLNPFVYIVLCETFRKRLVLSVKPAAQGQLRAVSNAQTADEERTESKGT
Sequence of Neuropeptide Y receptor type 1 (P25929 whole entry): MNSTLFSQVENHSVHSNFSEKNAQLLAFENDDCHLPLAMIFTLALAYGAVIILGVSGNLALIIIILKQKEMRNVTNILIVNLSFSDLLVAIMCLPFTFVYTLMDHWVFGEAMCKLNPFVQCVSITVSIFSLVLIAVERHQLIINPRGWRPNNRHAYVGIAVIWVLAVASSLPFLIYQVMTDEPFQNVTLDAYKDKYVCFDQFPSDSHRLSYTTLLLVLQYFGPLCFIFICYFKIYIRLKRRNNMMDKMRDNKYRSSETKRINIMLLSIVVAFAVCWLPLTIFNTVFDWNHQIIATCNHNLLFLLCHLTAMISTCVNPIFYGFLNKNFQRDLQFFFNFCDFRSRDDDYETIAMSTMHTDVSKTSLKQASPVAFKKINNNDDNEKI
Sequence of Serine/threonine-protein phosphatase (Q9BPW0 whole entry): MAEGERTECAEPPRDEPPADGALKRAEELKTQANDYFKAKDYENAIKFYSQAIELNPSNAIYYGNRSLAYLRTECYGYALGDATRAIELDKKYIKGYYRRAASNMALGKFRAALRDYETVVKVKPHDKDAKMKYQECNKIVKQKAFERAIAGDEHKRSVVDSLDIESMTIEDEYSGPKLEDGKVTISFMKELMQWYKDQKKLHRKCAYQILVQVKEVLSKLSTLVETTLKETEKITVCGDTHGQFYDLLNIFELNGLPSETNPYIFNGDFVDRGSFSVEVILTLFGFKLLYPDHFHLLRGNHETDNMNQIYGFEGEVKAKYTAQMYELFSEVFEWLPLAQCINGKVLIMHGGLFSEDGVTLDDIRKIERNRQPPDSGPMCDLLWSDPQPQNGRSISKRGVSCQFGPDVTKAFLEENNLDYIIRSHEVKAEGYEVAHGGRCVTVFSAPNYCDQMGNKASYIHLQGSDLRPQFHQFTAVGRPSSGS

CCOC(=O)c1cc2c(N)c(C(=O)c3ccc(Br)cc3)sc2nc1O
IC50 [1]: 34 µM (active)

Fc1nc(F)c(F)c(NCCCNc2c(F)c(F)nc(F)c2F)c1F
IC50 [2]: > 100 µM (active)
IC50 (Fatty acid synthase [3]): 7.19 µM (active)
CC50 [4]: 24 µM (active)
IC50 (Fatty acid synthase [5]): 26 µM (inactive)

COc1ccnc(Oc2ccc(F)cc2)c1C(=O)N=CNOCc1ccc(F)cc1
IC50 [6]: 30.3 µM (not active)

Cc1cccc(Nc2nc(N)c([N+](=O)[O-])c(NCc3ccccc3)n2)c1
AC50 (HeLa): 25 µM (active)

CCN(CC(=O)NCc1cccs1)C(=O)c1ccc([N+](=O)[O-])o1
EC50 [7]: < 0.1 µM (active)
EC50 [8]: > 30 µM (not active)
EC50 (cells): 0.047 µM (active)

COc1ncccc1-c1nnn(-c2ccc(Cl)c(Cl)c2)n1
IC50 (Bcl-2-related protein A1 [9]): > 100 µM (not active)
IC50 (Bcl-2-related protein A1 [10]): > 100 µM (not active)

O=S(=O)(c1cccc(NC(=S)N2CCN(c3cccc(Cl)c3)CC2)c1)C(F)F
EC50 (HEK293): > 35.4 µM (not active)
EC50 [11]: > 35.4 µM (not active)
EC50 [12]: > 35.4 µM (not active)
CC50 (Vero): > 40 µM (active)

O=C(O)C1CCN(c2nc(-c3ccccc3)c3cc(Br)ccc3n2)CC1
IC50 [13]: 2.33 µM (active)
IC50 [14]: > 39.8 µM (not active)

O=C(NCCCN1CCCC1=O)c1ccc2c(=O)n(Cc3ccco3)c(=S)[nH]c2c1
EC50 [15]: > 50 µM (not active)

Cc1nnc(NC(=O)C2C3C=CC(O3)C2C(=O)O)s1 (stereo unspecified)
IC50 [16]: > 67 µM (not active)
IC50 [17]: > 67 µM (not active)
